The source of these data is PubChem BioAssay AID248 (DTP/NCI, 2004).

The test system of this experiment is L1210 leukemia ip in BDF1 mice, survival T/C. As to the kind of experiment: NCI In Vivo Anticancer Drug Screen. Data for tumor model L1210 Leukemia (intraperitoneal) in B6D2F1 (BDF1) mice. As to conditions: endpoint: mean survival time, higher = longer survival. The procedure, abridged:
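Survival endpoint. Drug-treated group vs vehicle group, expressed as T divided by C. Tumor passaged by transplantation.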

Setting [1] is: dose: 100.0 mg/kg/injection, schedule: Q01DX001 (ip), vehicle: Klucel (hydroxypropylcellulose) (HPC).
Where [2] appears, read: dose: 200.0 mg/kg/injection, schedule: Q01DX001 (ip), vehicle: Klucel (hydroxypropylcellulose) (HPC).
The mark [3] stands for this setting: dose: 400.0 mg/kg/injection, schedule: Q01DX001 (ip), vehicle: Klucel (hydroxypropylcellulose) (HPC).
Setting [4] is: dose: 50.0 mg/kg/injection, schedule: Q01DX001 (ip), vehicle: carboxymethylcellulose (CMC).
[5] abbreviates: dose: 100.0 mg/kg/injection, schedule: Q01DX001 (ip), vehicle: carboxymethylcellulose (CMC).
Setting [6] is: dose: 200.0 mg/kg/injection, schedule: Q01DX001 (ip), vehicle: carboxymethylcellulose (CMC).
Where [7] appears, read: dose: 400.0 mg/kg/injection, schedule: Q01DX001 (ip), vehicle: carboxymethylcellulose (CMC).
The mark [8] stands for this setting: dose: 100.0 mg/kg/injection, schedule: Q04DX002 (ip), vehicle: Klucel (hydroxypropylcellulose) (HPC).
The mark [9] stands for this setting: dose: 200.0 mg/kg/injection, schedule: Q04DX002 (ip), vehicle: Klucel (hydroxypropylcellulose) (HPC).
Setting [10] is: dose: 100.0 mg/kg/injection, schedule: Q01DX001 (ip), vehicle: saline with Tween-80.
The mark [11] stands for this setting: dose: 200.0 mg/kg/injection, schedule: Q01DX001 (ip), vehicle: saline with Tween-80.
Where [12] appears, read: dose: 100.0 mg/kg/injection, schedule: Q04DX003 (ip), vehicle: Klucel (hydroxypropylcellulose) (HPC).
Where [13] appears, read: dose: 400.0 mg/kg/injection, schedule: Q04DX003 (ip), vehicle: Klucel (hydroxypropylcellulose) (HPC).

Molecules are shown by their SMILES. Values joined by “and” are separate entries in the source; they are usually repeats but may differ in a detail not shown here. Identical values can stand only once. Inconclusive results and toxic doses are left out.

Turning to `COS(=O)(=O)c1ccc([N+](=O)[O-])cc1[N+](=O)[O-]`, the T/C (dose: 100.0 mg/kg/injection, schedule: Q01DX001 (ip), vehicle: saline) was 100 % of control; the T/C (dose: 200.0 mg/kg/injection, schedule: Q01DX001 (ip), vehicle: saline) was 94 % of control; the T/C (dose: 400.0 mg/kg/injection, schedule: Q01DX001 (ip), vehicle: saline) is 91 % of control.
As for `CCc1cccc[n+]1CC(=O)c1ccccc1`, the T/C (dose: 6.25 mg/kg/injection, schedule: Q01DX009 (ip), vehicle: saline) was 95 % of control; the T/C (dose: 12.5 mg/kg/injection, schedule: Q01DX009 (ip), vehicle: saline) is 98 % of control; the T/C (dose: 25.0 mg/kg/injection, schedule: Q04DX003 (ip), vehicle: saline) was 96 % of control.
As to `CCCCCCC12CCC(O)C1(CCCCCCC(=O)O)O2` (stereo unspecified), the T/C is 95 % of control (dose: 50.0 mg/kg/injection, schedule: Q04DX002 (ip), vehicle: saline); 102 % of control (dose: 100.0 mg/kg/injection, schedule: Q04DX002 (ip), vehicle: saline); 91 % of control (dose: 200.0 mg/kg/injection, schedule: Q04DX002 (ip), vehicle: saline).
Take `O=C(O)c1sc(C(=O)O)c(O)c1O`: the T/C (dose: 12.5 mg/kg/injection, schedule: Q01DX001 (ip), vehicle: saline with Tween-80) is 111 % of control; the T/C (dose: 25.0 mg/kg/injection, schedule: Q01DX001 (ip), vehicle: saline with Tween-80) is 103 % of control; the T/C (dose: 50.0 mg/kg/injection, schedule: Q01DX001 (ip), vehicle: saline with Tween-80) is 100 % of control.
For `CCOC(=O)c1nnc(CC)[nH]c1=O`, the T/C reads like this: under setting [1], 106 % of control; under setting [2], 111 % of control; under setting [3], 90 % of control.
Regarding `Cn1c(C(Cl)Cl)nc2ccccc2c1=O`, the T/C reads like this: under setting [4], 106 % of control; under setting [5], 106 % of control; under setting [6], 106 % of control; under setting [7], 97 % of control.
Regarding `COC(=O)C1ON(C(=O)c2ccccc2)C(C)C(O)C1OC=O` (stereo unspecified), the T/C was 95 % of control under setting [8]; 95 % of control under setting [9]; 103 % of control (dose: 400.0 mg/kg/injection, schedule: Q04DX002 (ip), vehicle: Klucel (hydroxypropylcellulose) (HPC)).
On to `Clc1ccc2c(NCCc3cnc[nH]3)ccnc2c1`, for which the T/C reads like this: (dose: 100.0 mg/kg/injection, schedule: Q01DX009 (ip), vehicle: saline with Tween-80) 94 % of control; (dose: 200.0 mg/kg/injection, schedule: Q01DX009 (ip), vehicle: saline with Tween-80) 94 % of control.
In the case of `CCCCCCCCCCC(C)CCCCCCCC` (stereo unspecified), the T/C was 113 % of control under setting [10]; 100 % of control under setting [11]; 94 % of control (dose: 400.0 mg/kg/injection, schedule: Q01DX001 (ip), vehicle: saline with Tween-80).
In the case of `Oc1ccccc1C1N(Cc2ccc(N(CCCl)CCCl)cc2Cl)CCCN1Cc1ccc(N(CCCl)CCCl)cc1Cl`, the T/C under setting [4] is 96 % of control, the T/C under setting [5] is 90 % of control, the T/C under setting [6] is 94 % of control and the T/C under setting [7] was 102 % of control.
As for `Cc1cc(C)c(C)c(C(=O)O)c1C`, the T/C is, setting by setting: (dose: 100.0 mg/kg/injection, schedule: Q01DX001 (ip), vehicle: acetone) 98 % of control; (dose: 100.0 mg/kg/injection, schedule: Q01DX009 (ip), vehicle: acetone) 101 % of control; (dose: 100.0 mg/kg/injection, schedule: Q04DX003 (ip), vehicle: saline) 88 % of control; (dose: 200.0 mg/kg/injection, schedule: Q01DX001 (ip), vehicle: acetone) 89 % of control; (dose: 200.0 mg/kg/injection, schedule: Q01DX009 (ip), vehicle: acetone) 106 % of control; (dose: 200.0 mg/kg/injection, schedule: Q04DX003 (ip), vehicle: saline) 102 % of control. Moreover, the T/C runs as follows: (dose: 400.0 mg/kg/injection, schedule: Q01DX001 (ip), vehicle: acetone) 94 % of control; (dose: 400.0 mg/kg/injection, schedule: Q01DX009 (ip), vehicle: acetone) 105 % of control; (dose: 400.0 mg/kg/injection, schedule: Q04DX003 (ip), vehicle: saline) 112 % of control.
Regarding `Nc1cc(N)cc(Cc2ccccc2)c1`, the T/C runs as follows: (dose: 50.0 mg/kg/injection, schedule: Q01DX009 (ip), vehicle: Klucel (hydroxypropylcellulose) (HPC)) 100 % of control; (dose: 100.0 mg/kg/injection, schedule: Q01DX009 (ip), vehicle: Klucel (hydroxypropylcellulose) (HPC)) 95 % of control; under setting [12], 100 % of control; (dose: 200.0 mg/kg/injection, schedule: Q01DX009 (ip), vehicle: Klucel (hydroxypropylcellulose) (HPC)) 103 % of control; (dose: 200.0 mg/kg/injection, schedule: Q04DX003 (ip), vehicle: Klucel (hydroxypropylcellulose) (HPC)) 102 % of control; (dose: 400.0 mg/kg/injection, schedule: Q01DX009 (ip), vehicle: Klucel (hydroxypropylcellulose) (HPC)) 92 % of control. Further, the T/C under setting [13] is 98 % of control.
Take `O=[N+]([O-])c1cccn2ncnc12`: the T/C (dose: 5.0 mg/kg/injection, schedule: Q01DX001 (ip), vehicle: acetone) was 104 % of control; the T/C (dose: 10.0 mg/kg/injection, schedule: Q01DX001 (ip), vehicle: acetone) is 106 % of control; the T/C (dose: 20.0 mg/kg/injection, schedule: Q01DX001 (ip), vehicle: acetone) is 96 % of control; the T/C (dose: 40.0 mg/kg/injection, schedule: Q01DX001 (ip), vehicle: acetone) was 96 % of control; the T/C (dose: 80.0 mg/kg/injection, schedule: Q01DX001 (ip), vehicle: acetone) was 107 % of control.
Consider `CN(C)c1ccc(/C=N/NC(=O)CCCCCCCCC(=O)N/N=C/c2ccc(N(C)C)cc2)cc1`, for which the T/C was 101 % of control and 104 % of control (dose: 12.5 mg/kg/injection, schedule: Q01DX009 (ip), vehicle: saline with Tween-80); 94 % of control and 97 % of control (dose: 25.0 mg/kg/injection, schedule: Q01DX009 (ip), vehicle: saline with Tween-80); 98 % of control (dose: 50.0 mg/kg/injection, schedule: Q04DX003 (ip), vehicle: saline with Tween-80); 100 % of control under setting [10]; 101 % of control and 104 % of control (dose: 100.0 mg/kg/injection, schedule: Q04DX002 (ip), vehicle: saline with Tween-80); 93 % of control (dose: 100.0 mg/kg/injection, schedule: Q04DX003 (ip), vehicle: saline with Tween-80). The T/C under setting [11] is 100 % of control; the T/C (dose: 200.0 mg/kg/injection, schedule: Q04DX002 (ip), vehicle: saline with Tween-80) is 101 % of control and 102 % of control; the T/C (dose: 400.0 mg/kg/injection, schedule: Q04DX002 (ip), vehicle: saline with Tween-80) is 108 % of control.
As to `COc1cc(N(CCCl)CCCl)c(OC)cc1C=Nc1ccc(-c2csc(Cc3ccccc3)n2)c(Cl)c1`, the T/C was 115 % of control (dose: 12.5 mg/kg/injection, schedule: Q01DX001 (ip), vehicle: carboxymethylcellulose (CMC)); 105 % of control (dose: 25.0 mg/kg/injection, schedule: Q01DX001 (ip), vehicle: carboxymethylcellulose (CMC)); 108 % of control under setting [4]; 115 % of control (dose: 88.0 mg/kg/injection, schedule: Q01DX001 (ip), vehicle: carboxymethylcellulose (CMC)); 110 % of control (dose: 88.0 mg/kg/injection, schedule: Q01DX009 (ip), vehicle: carboxymethylcellulose (CMC)); 94 % of control (dose: 133.0 mg/kg/injection, schedule: Q01DX009 (ip), vehicle: carboxymethylcellulose (CMC)). Besides, the T/C is 153 % of control (dose: 150.0 mg/kg/injection, schedule: Q01DX001 (ip), vehicle: carboxymethylcellulose (CMC)); 176 % of control and 182 % of control (dose: 300.0 mg/kg/injection, schedule: Q01DX001 (ip), vehicle: carboxymethylcellulose (CMC)).
In the case of `Cc1cc(=O)[nH]c2c1ccc1[nH]c(=O)cc(C)c12`, the T/C is 91 % of control under setting [1]; 95 % of control under setting [12]; 94 % of control under setting [2]; 91 % of control under setting [3]; 86 % of control under setting [13].
Turning to `O=C(Nc1ccccc1F)C(Cl)(Cl)Cl`, the T/C is, setting by setting: under setting [8], 104 % of control; under setting [9], 104 % of control.
